According to US20090155387A1, “STABLE PHARMACEUTICAL COMPOSITION COMPRISING BETA-LACTAM ANTIBIOTIC AND ION-CHELATING AGENT” (priority 2006, published 2009):

Experiment: Amounts of β-lactam antibiotic, β-lactamase inhibitor and aminoglycoside antibiotic in solution over time (reverse-phase LC/HPLC)
Type: physicochemical
Protocol: The amounts of β-lactam antibiotics and β-lactamase inhibitor were determined using C18 reverse-phase LC and UV-VIS detector (Tianjin […] Co., Ltd., analysis method No. HM-K-03). The content of aminoglycoside antibiotics was measured using reverse-phase HPLC and evaporation-light-scattering detector (ELSD detector) (Tianjin […] Co., Ltd., analysis method No. HM-K-08). The amount of antibiotic component at each time point was expressed as a percentage with respect to the amount at the initial time. The relative amount of each antibiotic component in the composition at each time point was expressed as peak area ratio with respect to the corresponding peak area of an external standard.

## NCC[C@H](O)C(=O)N[C@@H]1C[C@H](N)[C@@H](O[C@H]2O[C@H](CN)[C@@H](O)[C@H](O)[C@H]2O)[C@H](O)[C@H]1O[C@H]1O[C@H](CO)[C@@H](O)[C@H](N)[C@H]1O [Amikacin]
In Example 19 solution, pH 6.75, room temperature, 0 h
  amount (percentage of initial amount): 99.91%
In Example 19 solution, pH 6.75, room temperature, 1 h
  amount (percentage of initial amount): 99.50%
In Example 19 solution, pH 6.75, room temperature, 2 h
  amount (percentage of initial amount): 98.88%
In Example 19 solution, pH 6.75, room temperature, 4 h
  amount (percentage of initial amount): 99.45%
In Example 19 solution, pH 6.75, room temperature, 6 h
  amount (percentage of initial amount): 98.56%
In Example 19 solution, pH 6.75, room temperature, 8 h
  amount (percentage of initial amount): 99.36%
In Example 20 solution (no EDTA), pH 6.75, room temperature, 0 h
  amount (percentage of initial amount): 95.98%
In Example 20 solution (no EDTA), pH 6.75, room temperature, 1 h
  amount (percentage of initial amount): 91.49%
In Example 20 solution (no EDTA), pH 6.75, room temperature, 2 h
  amount (percentage of initial amount): 85.05%
In Example 20 solution (no EDTA), pH 6.75, room temperature, 4 h
  amount (percentage of initial amount): 91.00%
In Example 20 solution (no EDTA), pH 6.75, room temperature, 6 h
  amount (percentage of initial amount): 81.93%
In Example 20 solution (no EDTA), pH 6.75, room temperature, 8 h
  amount (percentage of initial amount): 89.98%

## CC1(C)S[C@@H]2[C@H](NC(=O)[C@H](NC(=O)N3CCNC3=O)c3ccccc3)C(=O)N2[C@H]1C(=O)O [Azlocillin sodium]
In Example 22 solution (2.5% fructose), pH 6.0, room temperature, 0 h
  amount (percentage of initial amount): 92.40%
In Example 22 solution (2.5% fructose), pH 6.0, room temperature, 1 h
  amount (percentage of initial amount): 98.91%
In Example 22 solution (2.5% fructose), pH 6.0, room temperature, 2 h
  amount (percentage of initial amount): 104.0%
In Example 22 solution (2.5% fructose), pH 6.0, room temperature, 4 h
  amount (percentage of initial amount): 98.91%
In Example 22 solution (2.5% fructose), pH 6.0, room temperature, 6 h
  amount (percentage of initial amount): 99.03%
In Example 22 solution (2.5% fructose), pH 6.0, room temperature, 8 h
  amount (percentage of initial amount): 85.02%

## CO/N=C(\C(=O)N[C@@H]1C(=O)N2C(C(=O)O)=C(CSc3nc(C)c(CC(=O)O)s3)CS[C@H]12)c1csc(N)n1 [Cefodizime sodium]
In Example 10 solution, pH 6.5, room temperature, 0 h
  amount (percentage of initial amount): 92.06%
In Example 10 solution, pH 6.5, room temperature, 1 h
  amount (percentage of initial amount): 99.84%
In Example 10 solution, pH 6.5, room temperature, 2 h
  amount (percentage of initial amount): 99.73%
In Example 10 solution, pH 6.5, room temperature, 4 h
  amount (percentage of initial amount): 98.64%
In Example 10 solution, pH 6.5, room temperature, 6 h
  amount (percentage of initial amount): 94.27%
In Example 10 solution, pH 6.5, room temperature, 8 h
  amount (percentage of initial amount): 96.48%
In Example 25 solution, pH 6.75, room temperature, 0 h
  amount (percentage of initial amount): 100.9%
In Example 25 solution, pH 6.75, room temperature, 1 h
  amount (percentage of initial amount): 104.6%
In Example 25 solution, pH 6.75, room temperature, 2 h
  amount (percentage of initial amount): 100.1%
In Example 25 solution, pH 6.75, room temperature, 4 h
  amount (percentage of initial amount): 81.34%
In Example 25 solution, pH 6.75, room temperature, 6 h
  amount (percentage of initial amount): 103.7%
In Example 25 solution, pH 6.75, room temperature, 8 h
  amount (percentage of initial amount): 102.2%
